Reference: PubChem BioAssay (NCI)
Where “and” joins values, the source holds several entries; their conditions need not be identical. Identical values can stand only once.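 These data come from cells grown in 96-well plates and exposed to compound for 48 hours at five concentrations. At the GI50, growth is halved. TGI marks complete inhibition of growth.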

Test system: A498 renal
Assay: NCI tumour cell line growth inhibition, 48 h

Row | SMILES | GI50 [µM] | TGI [µM]
1 | COc1cc2cc(Oc3cccc(NC(=O)Nc4cc(C(F)(F)F)cc(C(F)(F)F)c4)c3)c(C)nc2cc1OC | 1.6 | 4.29
2 | COc1cc(N(C)C)c(OC)cc1C=C1C=CC=C1 |  | > 100
3 | C[C@H]1CC[P+](C)(c2ccccc2)C1 (some centres undefined) |  | > 100
4 | C=C1CC[C@H]2C(C)=CC[C@H]3C(=C)C(=O)O[C@@H]3[C@@H]12 |  | > 100
5 | COc1cccc(/C=N\NC(=O)C(C)SC(C)C(=O)N/N=C/c2cccc(OC)c2)c1 (centres undefined) |  | 27
6 | O=[N+]([O-])/C=C/c1ccc(Cl)cc1[N+](=O)[O-] | 14.5 | 27.8
7 | COc1ccc(-c2csc(Nc3cccc(-c4csc(C)n4)c3)n2)cc1 | 12.6 | 49.2
8 | COc1cc(/C=C2\SC(N3CCCCC3)=NC2=O)ccc1OCCCCCCOc1ccc(/C=C2\SC(N3CCCCC3)=NC2=O)cc1OC | 12.8 | 46.2
9 | COc1cc2c3c(n(CCCNCCCNCCCN)c(=O)c2cc1OC)-c1cc2c(cc1C3=O)OCO2 | > 100 | > 100
10 | COc1ccc(-c2c(N)noc2-c2cc(OC)c3c(c2)OCCO3)cc1 | < 0.01 | 0.303
11 | O=C1CCC(=O)N1Sc1ccccc1 |  | > 100
12 | CCOC(=O)c1c(NC(=O)c2ccc(Cl)cc2)sc2c(CN(C)C)c(O)ccc12 | 6.09 | 19.9
13 | O=C(/C=C/c1ccccc1O)c1ccccc1Cl |  | > 100
14 | COc1ccc(/C=N/NS(=O)(=O)c2ccccc2)cc1 |  | > 100
15 | COc1ccccc1NC(=O)C1=C(C)NC(C)=C(C(=O)Nc2ccccc2OC)C1c1ccco1 |  | 38.4
16 | C1=CC2CCC1CN2CCC1CNc2ccccc21 (centres undefined) |  | > 100
17 | Cc1ccc(OC(=O)N2C/C(=C\c3ccccc3)C(=O)/C(=C/c3ccccc3)C2)cc1 |  | > 100
18 | O=C1C(=O)C2(CC1S(=O)(=O)c1ccccc1)c1ccccc1-c1ccccc12 (centres undefined) |  | 34.8
19 | Cc1ccc(S(=O)C(C)C(Cl)c2ccccc2)cc1 (centres undefined) |  | > 100
20 | CN1CCc2ccccc2C(C(=O)c2ccc3c(c2)OCO3)C1=O (centres undefined) |  | > 100
21 | Cc1cc(Cl)ccc1NC(=O)C1C(=O)N(c2ccc(Cl)cc2C)C(=O)/C1=N\NC(N)=S (centres undefined) |  | 72.4
22 | COc1cc(-c2nn(-c3cccc(NC(=O)CCNc4ccc(N5CCOCC5)cc4)c3)cc2-c2ccncc2)ccc1Cl | 2.52 | 17.4
23 | COc1ccc(C)cc1NC(=S)C#N |  | > 100
24 | Cc1ccc2ccc(-c3ccccc3)c3c2c1C(=O)c1ccccc1C3=O |  | > 100
25 | COc1ccc(C2Cc3cc(OC)c(OC)c(OC)c3C2)cc1 (centres undefined) |  | > 100

Test system: NCI/ADR-RES ovarian
Assay: NCI tumour cell line growth inhibition, 48 h

Row | SMILES | GI50 | TGI
26 | CS(=O)(=O)Nc1cc(-c2ccc3ncnc(Nc4cccc(Cl)c4)c3c2)cnc1Cl | 1.19 µM | 12 µM
27 | CN(C)c1ccc(C(O)C2=CC(=O)c3ccccc3C2=O)cc1 (centres undefined) | > 100 µM | > 100 µM
28 | CCOC(=O)[C@@H]1CSC(CC)=C(C(=O)O)N1 | > 100 µM | > 100 µM
29 | COc1cc(N(C)C)c(OC)cc1C=C1C=CC=C1 |  | > 100 µM
30 | C=C1CC[C@H]2C(C)=CC[C@H]3C(=C)C(=O)O[C@@H]3[C@@H]12 |  | > 100 µM
31 | O=[N+]([O-])/C=C/c1ccc(Cl)cc1[N+](=O)[O-] | 3.18 µM | 77.7 µM
32 | COc1ccc(-c2csc(Nc3cccc(-c4csc(C)n4)c3)n2)cc1 | 0.534 µM | 4.19 µM
33 | COc1cc(/C=C2\SC(N3CCCCC3)=NC2=O)ccc1OCCCCCCOc1ccc(/C=C2\SC(N3CCCCC3)=NC2=O)cc1OC | 9.11 µM | 28.2 µM
34 | CCCCCCCCCCCCCCCC[n+]1ccccc1 | 2.56 µM and 4.38 µM | 15.1 µM and 27 µM
35 | COc1ccc(-c2c(N)noc2-c2cc(OC)c3c(c2)OCCO3)cc1 | < 0.01 µM | 0.0226 µM
36 | CCOC(=O)c1c(NC(=O)c2ccc(Cl)cc2)sc2c(CN(C)C)c(O)ccc12 | 8.57 µM | 36.1 µM
37 | O=C(O)CCCCC1CCSS1 (centres undefined) |  | > 100 µM
